Laboratory results: US12496329B2, “Methods of using and compositions including an incretin analog” (Eli Lilly and Company, priority 2021, dated 2025)

Assay: Phase 2 study for obesity and NAFLD
Type: in vivo, human
Conditions: 16 week data; dose range 2-12 mg; steps of 1, 2, 3 or 4 mg QW SC
Text: Studies are designed to further evaluate the effectiveness and safety of the GGG tri-receptor agonist (SEQ ID NO:1) in a larger population of obese individuals or overweight individuals. The study is a randomized, investigator- and participant-blind, placebo-controlled study conducted in obese individuals or overweight individuals without diabetes (i.e., females or males aged 18-75 years, inclusive, with obesity prior to randomization and with a BMI of ≥30 kg/m^2 at screening or overweight prior to randomization and with a BMI of ≥27 kg/m^2 […] <30 kg/m^2 at screening with weight-related comorbidities but without T2DM).
Dose escalation of the GGG tri-receptor agonist is assessed over 36 weeks in cohorts administered the GGG tri-receptor agonist, dulaglutide or placebo. A first cohort of 60 individuals is administered 2.0 mg of the GGG tri-receptor agonist for Weeks 1-4, 4.0 mg for the Weeks 5-8, 8.0 mg for Weeks 9-12, and then 12.0 mg for […]. […] An additional 125 individuals are assessed for NAFLD, which is characterized by ≥10% liver fat by magnetic resonance imaging proton density fat fraction (MRI-PDFF).
Body weight is assessed at pre-dose and at Week 24 and at Week 48 for % change in body weight. Mean change in waist circumference (cm) is measured at Week 24 or Week 48. […]

CC[C@H](C)[C@H](NC(=O)[C@H](Cc1ccccc1)NC(=O)[C@H](C)NC(=O)C(C)(C)NC(=O)[C@H](CCC(N)=O)NC(=O)[C@H](C)NC(=O)[C@H](CCCCNC(=O)COCCOCCNC(=O)CC[C@H](NC(=O)CCCCCCCCCCCCCCCCCCC(=O)O)C(=O)O)NC(=O)[C@H](CCCCN)NC(=O)[C@H](CC(=O)O)NC(=O)[C@H](CC(C)C)NC(=O)[C@](C)(CC(C)C)NC(=O)[C@@H](NC(=O)[C@H](CO)NC(=O)[C@H](Cc1ccc(O)cc1)NC(=O)[C@H](CC(=O)O)NC(=O)[C@H](CO)NC(=O)[C@@H](NC(=O)[C@H](Cc1ccccc1)NC(=O)[C@@H](NC(=O)CNC(=O)[C@H](CCC(N)=O)NC(=O)C(C)(C)NC(=O)[C@@H](N)Cc1ccc(O)cc1)[C@@H](C)O)[C@@H](C)O)[C@@H](C)CC)C(=O)N[C@@H](CCC(=O)O)C(=O)N[C@@H](Cc1ccc(O)cc1)C(=O)N[C@@H](CC(C)C)C(=O)N[C@@H](CC(C)C)C(=O)N[C@@H](CCC(=O)O)C(=O)NCC(=O)NCC(=O)N1CCC[C@H]1C(=O)N[C@@H](CO)C(=O)N[C@@H](CO)C(=O)NCC(=O)N[C@@H](C)C(=O)N1CCC[C@H]1C(=O)N1CCC[C@H]1C(=O)N1CCC[C@H]1C(=O)N[C@@H](CO)C(N)=O [GGG tri-receptor agonist, Y-Aib-QGTFTSDYSI-αMeL-LDKK((2-[2-(2-amino-ethoxy)-ethoxy]-acetyl)-(γGlu)-CO-(CH2)18-CO2H)AQ-Aib-AFIEYLLEGGPSSGAPPPS-NH2]
tolerability profile of dosing regimens: acceptable tolerability profiles
